Assay results: the supplement of paper PMC10307832

Key:
Test in all cases: relative viability (nuclei count vs DMSO), 5 days (fraction); higher = more cells survive
Alisertib + Lapatinib = compound: COc1cc(Nc2ncc3c(n2)-c2ccc(Cl)cc2C(c2c(F)cccc2OC)=NC3)ccc1C(=O)O [Alisertib] + CS(=O)(=O)CCNCc1ccc(-c2ccc3ncnc(Nc4ccc(OCc5cccc(F)c5)c(Cl)c4)c3c2)o1 [Lapatinib] (partner 2 µM)
Procedure, shortened: (§1)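 Relative viability was taken as the ratio of nuclei in treated wells to nuclei in vehicle wells. Lung cancer cell lines in 1536-well plates received compounds by pin tool one day after seeding, either one drug alone or a fixed anchor-drug dose plus five library-drug doses (not always all listed) in √10 steps. Nuclei were counted on 4× images after 5 days of treatment, and values are medians of duplicate plates.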

Alisertib + Linsitinib = compound: COc1cc(Nc2ncc3c(n2)-c2ccc(Cl)cc2C(c2c(F)cccc2OC)=NC3)ccc1C(=O)O [Alisertib] + C[C@]1(O)C[C@@H](c2nc(-c3ccc4ccc(-c5ccccc5)nc4c3)c3c(N)nccn32)C1 [Linsitinib] (partner 1 µM)
Procedure, shortened: as §1

Alisertib + OSI-027 = compound: COc1cc(Nc2ncc3c(n2)-c2ccc(Cl)cc2C(c2c(F)cccc2OC)=NC3)ccc1C(=O)O [Alisertib] + COc1cccc2cc(-c3nc([C@H]4CC[C@H](C(=O)O)CC4)n4ncnc(N)c34)[nH]c12 [OSI-027] (partner 0.5 µM)
Procedure, shortened: as §1

Alisertib + Luminespib = compound: COc1cc(Nc2ncc3c(n2)-c2ccc(Cl)cc2C(c2c(F)cccc2OC)=NC3)ccc1C(=O)O [Alisertib] + CCNC(=O)c1noc(-c2cc(C(C)C)c(O)cc2O)c1-c1ccc(CN2CCOCC2)cc1 [Luminespib] (partner 0.01 µM)
Procedure, shortened: as §1

Cell Line	relative viability (Alisertib + Lapatinib; first compound 0.005 µM)	relative viability (Alisertib + Lapatinib; first compound 0.01581 µM)	relative viability (Alisertib + Lapatinib; first compound 0.05 µM)	relative viability (Alisertib + Lapatinib; first compound 0.1581 µM)	relative viability (Alisertib + Lapatinib; first compound 0.5 µM)	relative viability (Alisertib + Linsitinib; first compound 0.005 µM)	relative viability (Alisertib + Linsitinib; first compound 0.01581 µM)	relative viability (Alisertib + Linsitinib; first compound 0.05 µM)	relative viability (Alisertib + Linsitinib; first compound 0.1581 µM)	relative viability (Alisertib + Linsitinib; first compound 0.5 µM)	relative viability (Alisertib + OSI-027; first compound 0.005 µM)	relative viability (Alisertib + OSI-027; first compound 0.01581 µM)	relative viability (Alisertib + OSI-027; first compound 0.05 µM)	relative viability (Alisertib + OSI-027; first compound 0.1581 µM)	relative viability (Alisertib + OSI-027; first compound 0.5 µM)	relative viability (Alisertib + Luminespib; first compound 0.005 µM)	relative viability (Alisertib + Luminespib; first compound 0.01581 µM)	relative viability (Alisertib + Luminespib; first compound 0.05 µM)	relative viability (Alisertib + Luminespib; first compound 0.1581 µM)	relative viability (Alisertib + Luminespib; first compound 0.5 µM)
PC-14	0.402	0.31	0.329	0.184	0.099	0.91	0.848	0.774	0.222	0.117	0.659	0.8	0.393	0.0786	0.049	0.177	0.141	0.146	0.134	0.151
NCI-H1437	0.729	0.576	0.45	0.218	0.13	0.951	0.775	0.365	0.15	0.104	0.722	0.699	0.394	0.219	0.154	1.01	0.919	0.707	0.462	0.237
SW 1573	1.15	0.939	0.552	0.345	0.203	0.856	0.824	0.649	0.176	0.143	0.556	0.5	0.284	0.148	0.102	0.28	0.139	0.106	0.0766	0.102
BEN	0.707	0.585	0.261	0.203	0.221	0.83	0.878	0.259	0.208	0.205	0.296	0.265	0.24	0.217	0.158	0.309	0.161	0.133	0.115	0.141
LC-2-ad	0.681	0.465	0.244	0.152	0.118	0.643	0.399	0.187	0.135	0.121	0.587	0.368	0.441	0.307	0.268	0.892	0.435	0.39	0.392	0.32
COR-L23	0.929	0.759	0.47	0.165	0.124	0.794	0.799	0.401	0.178	0.121	0.739	0.661	0.517	0.133	0.13	0.585	0.568	0.303	0.0956	0.0981
SK-LU-1	0.79	0.569	0.296	0.265	0.237	1.07	0.924	0.361	0.324	0.24	0.369	0.233	0.182	0.18	0.163	0.178	0.18	0.159	0.184	0.178
NCI-H1915	0.787	0.821	0.606	0.305	0.253	0.984	0.948	0.504	0.354	0.224	0.507	0.473	0.374	0.278	0.238	0.684	0.452	0.151	0.148	0.185
NCI-H647	0.801	0.62	0.275	0.085	0.058	1.15	0.883	0.373	0.287	0.0691	0.662	0.487	0.227	0.116	0.102	0.151	0.132	0.0794	0.0983	0.0961
NCI-H2009	0.863	0.76	0.355	0.255	0.319	1.24	1.14	0.672	0.427	0.213	0.497	0.587	0.334	0.233	0.152	0.971	0.972	0.395	0.292	0.264
NCI-H2126	0.688	0.754	0.713	0.408	0.312	0.709	0.752	0.467	0.342	0.256	0.721	0.696	0.588	0.318	0.36	0.785	0.834	0.601	0.274	0.285
LXF-289	0.743	0.654	0.666	0.168	0.166	0.843	0.814	0.21	0.194	0.116	0.637	0.656	0.461	0.123	0.0861	0.455	0.325	0.16	0.0792	0.142
NCI-H1563	1.02	0.654	0.85	0.892	0.598	1.04	1.01	1.01	0.935	0.744	0.742	0.768	0.684	0.695	0.54	0.509	0.54	0.483	0.295	0.413
